biological target: T1, human PCaR (Homo sapiens, UniProt P41180); experiment: Assay for intracellular free calcium (inhibition of calcium transients stimulated by extracellular calcium); assay type: cell-based; settings: CCL39 fibroblasts stably transfected with human PCaR; "based on the above described assay"
T1 construct: expressed in transfected cells; host or cells: CCL39 fibroblasts (stably transfected)
T1 sequence (P41180 20-1078): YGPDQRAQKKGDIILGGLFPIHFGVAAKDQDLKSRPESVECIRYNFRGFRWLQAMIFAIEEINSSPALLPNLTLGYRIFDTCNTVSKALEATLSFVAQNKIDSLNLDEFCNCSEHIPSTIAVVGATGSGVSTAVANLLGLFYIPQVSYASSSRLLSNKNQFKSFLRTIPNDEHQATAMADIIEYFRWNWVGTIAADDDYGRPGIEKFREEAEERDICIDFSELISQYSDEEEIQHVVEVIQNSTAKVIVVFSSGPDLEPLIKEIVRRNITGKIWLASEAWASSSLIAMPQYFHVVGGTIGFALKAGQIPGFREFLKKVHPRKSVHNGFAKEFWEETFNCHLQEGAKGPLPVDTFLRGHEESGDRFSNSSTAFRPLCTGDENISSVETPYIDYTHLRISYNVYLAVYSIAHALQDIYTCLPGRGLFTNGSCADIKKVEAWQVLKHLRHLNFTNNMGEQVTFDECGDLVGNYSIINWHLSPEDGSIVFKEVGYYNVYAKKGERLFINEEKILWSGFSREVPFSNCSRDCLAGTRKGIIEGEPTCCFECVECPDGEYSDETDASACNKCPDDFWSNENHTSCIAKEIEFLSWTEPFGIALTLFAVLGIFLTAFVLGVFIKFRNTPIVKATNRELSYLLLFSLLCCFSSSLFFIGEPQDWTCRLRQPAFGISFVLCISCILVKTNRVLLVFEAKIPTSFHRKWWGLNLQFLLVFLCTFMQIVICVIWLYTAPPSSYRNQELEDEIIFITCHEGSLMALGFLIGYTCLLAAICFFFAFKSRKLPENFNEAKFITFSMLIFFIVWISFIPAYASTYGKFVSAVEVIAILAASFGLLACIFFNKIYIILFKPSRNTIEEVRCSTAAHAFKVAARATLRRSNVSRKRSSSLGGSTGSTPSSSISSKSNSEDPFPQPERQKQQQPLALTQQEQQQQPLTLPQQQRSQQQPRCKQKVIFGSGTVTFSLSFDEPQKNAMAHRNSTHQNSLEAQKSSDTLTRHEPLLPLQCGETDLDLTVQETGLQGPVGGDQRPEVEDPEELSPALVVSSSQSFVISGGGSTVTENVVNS
Protocol: An alternative method to determine antagonism at the PCaR consists in measuring the inhibition of intracellular calcium transients stimulated by extracellular calcium. CCL39 fibroblasts stably transfected with human PCaR are seeded at 40′000 cells/well into 96-well Viewplates and incubated for 24 hours. Medium is then removed and replaced with fresh medium containing 2 μM Fluo-3 AM (Molecular Probes, Leiden, The Netherlands), In routine experiments, cells are incubated at 37° C., 5% CO2 for 1 h. Afterwards, plates are washed twice with mHBS and wells are refilled with 100 μl mHBS containing the test compounds. Incubation is continued at room temperature for 15 minutes. To record changes of intracellular free calcium, plates are transferred to fluorescence-imaging plate reader (Molecular Devices, Sunnyvale, Calif., USA). A baseline consisting in 5 measurements of 0.4 seconds each (laser excitation 488 nm) is recorded. Cells are then stimulated with calcium (2.5 mM final), and fluorescence changes recorded over a period of 3 minutes.

IC50 | SMILES
3.4 nM | COCCn1c(-c2ccc(C(C)C)cc2)nc2c(Br)c(Cc3cccnc3SC)cc(OC)c21 [Example 1, 4-Bromo-2-(4-isopropyl-phenyl)-7-methoxy-1-(2-methoxy-ethyl)-5-(2-methylsulfanyl-pyridin-3-ylmethyl)-1H-benzoimidazole]
2.6 nM | COCCn1c(-c2ccc(C(C)C)cc2)nc2c(C(F)(F)F)c(Cc3cccnc3[S+](C)[O-])cc(OC)c21 (stereo not shown) [Example 3, 2-(4-Isopropyl-phenyl)-5-(2-methanesulfinyl-pyridin-3-ylmethyl)-7-methoxy-1-(2-methoxy-ethyl)-4-trifluoromethyl-1H-benzoimidazole]
3.2 nM | COCCn1c(-c2ccc(C(C)C)cc2)nc2c(C(F)(F)F)c(Cc3cccnc3OC(C)C)cc(OC)c21 [Example 8, 5-(2-Isopropoxy-pyridin-3-ylmethyl)-2-(4-Isopropyl-phenyl)-7-methoxy-1-(2-methoxy-ethyl)-4-trifluoromethyl-1H-benzoimidazole]
1.8 nM | C#CCOc1ncccc1Cc1cc(OC)c2c(nc(-c3ccc(C(C)C)cc3)n2CCOC)c1C(F)(F)F [Example 9, 2-(4-Isopropyl-phenyl)-7-methoxy-1-(2-methoxy-ethyl)-5-(2-prop-2-ynyloxy-pyridin-3-ylmethyl)-4-trifluoromethyl-1H-benzoimidazole]

Reference: US20100227889A1, “Benzimidazole Derivatives” (priority 2006, published 2010)
